{"source": "paper PMC8287944", "about": "“5-Fluorouracil blocks quorum-sensing of biofilm-embedded methicillin-resistant Staphylococcus aureus in mice” (Nucleic Acids Research, 2021)", "key": {"MRSA ATCC 43300": {"test_system": "MRSA ATCC 43300", "assay": "Murine tissue cage (foreign-body) infection model, prophylaxis", "format": "in vivo, Staphylococcus aureus", "details": "C57BL/6 mice, prophylactic treatment", "procedure": "To evaluate the prophylactic efficacy of 5-FU against MRSA infection, we used our murine model of foreign-body infection, which closely mimics human implant-associated infections. This model of foreign-body infection ([26],[27]) was established with the approval of the Kantonale Veterinaeramt Basel-Stadt, Switzerland (permit no. 1710). Experiments were conducted according to the regulations of Swiss veterinary law and performed in the animal house of the Department of Biomedicine, University Hospital Basel, Switzerland. Healthy wild-type female C57BL/6 mice at 13 weeks of age (JanvierLabs, France) kept under specific pathogen-free conditions (biosafety level 2) were anesthetized, followed by the subcutaneous implantation of sterile cylindrical Teflon tissue cages (8.5 × 1 × 30 mm; volume: 1.9 ml) with 130 regularly spaced holes (Angst + Pfister AG, Zurich, Switzerland). They were housed in a 12 hr light/dark cycle (light from 7 am to 7 pm) in a temperature-controlled room (24°C) with free access to regular mice chow and water. Mice were randomly assigned to experimental groups, which were not involved in previous procedures. The mice were randomized into groups, which were treated as follows: saline (untreated growth control; n = 7), saline with 5.2844 mg/kg DPD (n = 4), 50 mg/kg daptomycin (DAP) (Novartis, Basel, Switzerland) (n = 11), 10 mg/kg 5-FU with and without 50 mg/kg DAP (each n = 8), 40 mg/kg 5-FU with or without 50 mg/kg DAP (n = 16 and n = 13, respectively), 40 mg/kg 5-FU with 1 μM DPD (n = 6), or 40 mg/kg 5-FU with 50 mg/kg DAP and 5.2844 mg/kg DPD (n = 8). DAP was given intraperitoneally immediately before implantation, and 5-FU and DPD was given immediately after implantation directly into the lumen of the cage. Afterwards, the cages were infected with 965 CFU of MRSA 43300. At 2 days post-infection, tissue cage fluid was collected, and the planktonic bacterial load was evaluated by plating on blood agar plates. In additional, mice were sacrificed and the tissue cages were explanted under aseptic conditions. The explanted tissue cages were washed twice with phosphate-buffered saline followed by 30 s vortexing, sonication for 3 min at 130 W and another 30 s vortexing to release adherent bacteria from the biofilm. Quantification of adherent bacteria was performed by plating appropriated dilutions on blood agar plates. To determine the prevention rate, the presence of any re-growth of MRSA was examined by further incubation of the cage in tryptic soy broth (TSB) for 48 h at 37°C. MRSA re-growth represents therapy failure, and the prevention rate was defined as the percentage of cages without growth in each treatment group.\nFigure 6. Prophylactic effect of 5-FU against MRSA ATCC 43300 in a murine tissue cage infection model. Read-outs were obtained two days after infection with 965 CFU/cage and treatment with saline, saline with 1 μM AI-2, 50 mg/kg daptomycin (DAP), 10 mg/kg 5-FU with or without 50 mg/kg DAP, 40 mg/kg 5-FU with or without 50 mg/kg DAP or 40 mg/kg 5-FU with 50 mg/kg DAP and 5.2844 mg/kg DPD, as indicated below the panels. (A) Effect on planktonic MRSA 43300 two days post-infection. (B) Effect on adherent MRSA after explantation and sonication. (C) Prevention rate. Values in (A) and (B) are median ± IQR and those in (C) are % ([…]; **P < 0.001; ****P < 0.0001; ns, not significant). TEXT PRINTED IN THE PICTURE: (C) DAP: prevention rate (%): 18 | (C) DAP + 5-FU (10): prevention rate (%): 75 | (C) DAP + 5-FU (40): prevention rate (%): 94 | (C) DAP + 5-FU (40) + DPD: prevention rate (%): 12.5 DOUBTS OF THE COPYIST ABOUT THIS PICTURE: Panel C, DAP, prevention rate: 18 or 16 (small print) / Panel C, DAP + 5-FU (10), prevention rate: 75 or 76 (small print) / Panel C: which treatment belongs to each bar was read from the small +/- grid under the plot, so the column alignment is not fully certain"}, "E. coli": {"test_system": "E. coli", "assay": "E. coli quorum sensing / AI-2 activity in supernatant", "format": "cell-based, Escherichia coli", "details": "Supplementary Figure S3", "procedure": "The test strain E. coli RP437 was grown overnight in LB. Its optical density was measured on a Novaspec II photometer (Pharmacia, Freiburg, Germany) and the culture was diluted to a final OD600 of 0.1 the next morning. The bacteria were challenged with test compounds for 3 h, and then AI-2 activity in the culture supernatant was determined. Specifically, 90 μl of the AI-2 reporter strain V. harveyi (MM32), grown overnight in LM medium and then prediluted 1:500 in AB-medium containing 30 μg/ml kanamycin, was added to 10 μl of E. coli supernatant (10% v/v) in black-bottomed Fluotrac 200 96-well plates (Greiner Bio-One, Frickenhausen, Germany), which were shaken at 200 rpm, at 30°C. The AI-2 induced bioluminescence of MM32 was measured after 5 h. […]\nSupplementary Figure 3 | Effect of hit candidates on Escherichia coli. […] AI-2-secreting E. coli (XL10-Gold) was grown for 3 h and AI-2 activity in the supernatant was quantified. […] Optical density (OD600) was measured after 24 h as a measure of cell growth. […] Then, planktonic cell growth (OD600) was measured and biofilm formation was quantified by means of crystal violet staining. (d) AI-2-secreting E. coli (RP437) was grown for 3 h in the presence of different compounds (10 µM), and then AI-2 activity in the supernatant was quantified. Optical density (OD600) was measured after 24 h."}, "HEK-293AI2 cells": {"test_system": "HEK-293AI2 cells", "format": "cell-based, human", "details": "human, 5 µM", "procedure": "To monitor viable cells with active metabolism, we employed a fast resazurin assay. […] To calculate the relative cell viability, the fluorescence of DMSO-treated cells was set to 100%.\nFigure 2. Cell-based primary screen for AI-2 biosynthesis inhibitors. (A) Detailed assay protocol of the primary screen using engineered mammalian cells to identify inhibitors of quorum sensing. […] Aliquots of 10 μl of culture supernatants were transferred to black-bottomed assay plates and mixed with 40 μl of V. harveyi MM32 (AI-2 biosensor). AI-2-induced bioluminescence was measured 4 h later and normalized against the controls. In a secondary screen, the dose-response relationships of hit compounds are analyzed. To simultaneously assess effects on cell viability, compound-treated cells were supplemented with PrestoBlue and incubated for 1 h prior to resorufin fluorescence quantification. (B) Z’-evaluation of the AI-2 inhibitor assay. […] Bioactivity and viability are calculated as percentages, based on the positive control value (taken as 100%) and negative control value (taken as 0%). […] Data points in (C) represent means of biological duplicates."}}, "data": [{"smiles": "O=c1[nH]cc(F)c(=O)[nH]1", "note": "[5-Fluorouracil]", "values": [{"measurement": "Effect on biofilm / adherent MRSA", "setting": "MRSA ATCC 43300; explanted cages 2 days post-infection", "result": "neither 5-FU nor DAP alone was sufficient to contain the infection"}, {"measurement": "Effect on planktonic MRSA infection", "setting": "MRSA ATCC 43300; tissue cage fluid 2 days post-infection", "result": "failed to clear planktonic MRSA infections"}, {"measurement": "Effect on E. coli quorum sensing", "setting": "E. coli", "result": "interfered with E. coli quorum sensing"}, {"measurement": "Viability of Ctrl (%)", "setting": "HEK-293AI2 cells", "result": 1.53, "unit": "%"}]}]}
